Data on two compounds can be found in PMC6222787, “Anti-Inflammatory Activities of Compounds Isolated from the Rhizome of Anemarrhena asphodeloides” (Molecules : A Journal of Synthetic Chemistry and Natural …, 2018).

For data set [1], the system named is LPS-induced NO production in N9 microglial cells. In words: LPS-induced NO production (Griess assay). In kind it is cell-based, mouse. As to conditions: LPS 100 ng/mL, 24 h; for Nitrite: control 4.60, LPS group 31.81 μM. On the procedure:
Figure 2 Inhibitory effects of TBIII (A) and t-HL (B) in LPS-stimulated N9 microglial cells. Cells were pretreated with different concentrations of TBIII and t-HL 1 h prior to the addition of LPS (100 ng/mL) and were further incubated for 24 h. NO production was determined by using the Griess reagent. IC50 values and curve fitting were determined using Graphpad Prism (GraphPad, Avenida, CA, USA).
Accumulation of nitrite, a metabolite of NO in the culture media, was measured by Griess assay as previously reported. Briefly, cells were stimulated with 100 ng/mL of LPS for 24 h in the presence of the test compounds (0–50 μM).

The test system of the next data set is iNOS. In words: iNOS expression by Western blot in LPS-stimulated N9 cells. The class given is cell-based, mouse. As to conditions: pretreated 1 h, LPS 100 ng/mL 24 h, dose-dependent. How it is done: Figure 3 Effects of TBIII (A) and t-HL (B) on the expression of iNOS induced by LPS in N9 microglial cells. The iNOS protein levels were analyzed by Western blot. Cells were treated with different concentrations of TBIII and t-HL for 1 h and then stimulated with LPS (100 ng/mL) for 24 h. The iNOS signal was normalized to the β-actin signal. Parthenolide (PAR, 10 μM) was used as a positive control. The data were obtained from three independent experiments and expressed as the means ± S.E.M. * p < 0.05, ** p < 0.01, *** p < 0.001 versus the LPS-treated group; ^### p < 0.001 versus the control group.
(§1) N9 cells were plated into 12-well plates (4 × 10^5 cells/well) and pretreated with different concentrations of TBIII and t-HL for 1 h, then stimulated by 100 ng/mL of LPS for 24 h. Nuclear and cytoplasmic proteins were obtained with nuclear and cytoplasmic protein extraction kit (Beyotime Biotechnology, Shanghai, China) according to the manufacturer′s protocol. Proteins were collected by SDS-PAGE Sample Loading Buffer (Yeasen, Shanghai, China) and heated at 99 °C for 10 min. Proteins in sample loading buffer were separated on 10% sodium dodecyl sulfate (SDS)-polyacrylamide gel electrophoresis (PAGE) and followed by transferring to nitrocellulose membranes (Whatman Protran, Dassel, Germany). […] The immunoreactive bands were quantified using the NIH Image J software (NIH, Bethesda, MD, USA).

Data set [2] concerns TNF-α. In words: LPS-induced TNF-α mRNA expression (real-time PCR). To be noted: pretreated 1 h, LPS 100 ng/mL 4 h, dose-dependent. In kind it is cell-based, mouse. How it is done: (§2) Figure 4 Effects of TBIII (A) and t-HL (B) on LPS-induced mRNA expression of pro-inflammatory cytokines in N9 microglial cells. Cells were treated with different concentrations of TBIII and t-HL for 1 h and then stimulated with LPS (100 ng/mL) for 4 h. TNF-α and IL-6 mRNA levels were determined by real-time PCR analysis. […] The data were obtained from three independent experiments and expressed as the means ± […] < 0.001 versus the LPS-treated group; ^### p < 0.001 versus the control group. Total RNA was extracted from cells using Trizol reagent (Invitrogen, Carlsbad, CA, USA). Reverse transcription of RNA was performed with the Reverse Transcription System […] kit (Promega, Madison, WI, USA) according to the manufacturer's protocol. The complementary DNA (cDNA) was subsequently subjected to Real-Time PCR to quantify the transcripts of TNF-α and IL-6 using SYBR® Green Real-time PCR Master Mix (TOYOBO, Osaka, Japan). […] The primers for the mouse housekeeping gene glyceraldehyde-3-phosphate dehydrogenase ([…] was performed according to the following conditions: 94 °C for 3 min, 40 cycles of denaturation at 94 °C for 30 s, annealing at 56 °C for 45 s, extension at 72 °C for 30 s, followed by a final extension at 72 °C for 10 min. The quantified fold changes in messenger RNA (mRNA) in each sample were normalized to GAPDH expression and calculated using the 2exp (-ΔΔCt) method.

Data set [3] deals with IL-6. The data set can be described thus: LPS-induced IL-6 mRNA expression (real-time PCR). To be noted: pretreated 1 h, LPS 100 ng/mL 4 h, dose-dependent. In kind it is cell-based, mouse. On the procedure: as §2
The subject of data set [4] is TNF-α. In words: LPS-induced TNF-α production (ELISA). The class given is cell-based, mouse. As to conditions: pretreated 1 h, LPS 100 ng/mL 24 h. On the procedure:
(§3) Figure 5 Effects of TBIII (A) and t-HL (B) on LPS-induced production of pro-inflammatory cytokines in N9 microglial cells. Cells were pre-treated with TBIII and t-HL for 1 h and then stimulated with LPS (100 ng/mL) for 24 h. The protein levels of TNF-α and IL-6 determined by ELISA according to manufacturer′s instructions. PAR (10 μM) was used as a positive control. The data were obtained from three independent experiments and expressed as the means ± S.E.M. * p < 0.05, ** p < 0.01, *** p < 0.001 versus the LPS-treated group; ^## p < 0.01, ^### p < 0.001 versus the control group.
(§4) N9 cells were plated into 24-well plates (2 × 10^5 cells/well). After cells became adherent, they were pretreated with different concentrations of TBIII and t-HL for 1 h before stimulation with 100 ng/mL of LPS. The supernatants of cultured medium were collected and the production of TNF-α and IL-6 was measured after incubation for 24 h using an ELISA kit according to manufacturer′s instructions.

The subject of data set [5] is IL-6. In words: LPS-induced IL-6 production (ELISA). In kind it is cell-based, mouse. As to conditions: pretreated 1 h, LPS 100 ng/mL 24 h. On the procedure: as §3, §4
The next data set concerns Akt. In words: LPS-induced activation of Akt (Western blot). To be noted: pretreated 1 h, LPS 100 ng/mL. In kind it is cell-based, mouse. On the procedure:
(§5) Figure 6 Effect of TBIII and t-HL on LPS-induced activation of Akt (A,C) and NF-κB (B,D) in N9 cells. Cells were treated with different concentrations of TBIII and t-HL for 1 h prior to stimulation with LPS (100 ng/mL). Nuclear and cytoplasmic proteins were obtained and analyzed by western blot. PAR (10 μM) was used as a positive control. The data shown represent the mean ± S.E.M of three independent experiments. * p < 0.05, ** p < 0.01, *** p < 0.001 versus the LPS-treated group; ^# p < 0.05, ^## p < 0.01, ^### p < 0.001 versus the control group.
as §1

For a further data set, the system named is NF-κB. In words: LPS-induced activation of NF-κB (Western blot, nuclear p65). In kind it is cell-based, mouse. As to conditions: pretreated 1 h, LPS 100 ng/mL. How it is done: as §5, §1
A further data set concerns neuronal injury. Set-up: method as in PMID 23287539. To be noted: cited from earlier work.
Data set [6] is described as follows: MTT assay for cell viability. As to conditions: mouse, N9 microglial cells, % Cell Viability, 24 h, MTT, mean ± S.E.M.
Method: The N9 microglial cell line was obtained from China Cell Line Bank. The cells were grown at 37 °C in IMDM supplemented with 10% heat-inactivated FBS under a humidified atmosphere of 5% CO2. In this experiment, cells were allowed to acclimate for 24 h before treatments.
Cell viability was evaluated by the MTT reduction assay [36]. Cells were seeded in 96-well plates at a density of 2 × 10^4 cells/well and allowed to grow for 24 h before treatments. Thereafter, 100 μL medium containing various concentrations (0–50 μM) of compounds were added and incubated for another 24 h. MTT was dissolved in DD water (5 mg/mL) and 10 μL were added to each well. After 4 h, the medium was removed and 100 μL DMSO were filled in each well. The optical density was measured at 490 nm on a Flexstation 3 (Molecular Devices, Silicon Valley, CA, USA).
For the next data set, the system named is N9 microglial cells. The data set can be described thus: MTT assay for cell viability. To be noted: MTT.
For data set [7], the system named is scopolamine-induced cognition deficits. The arrangement: method as in PMID 27444169. As to conditions: mice; cited from earlier work.

Regarding `C=CC(C=Cc1ccc(O)cc1)c1ccc(O)cc1` (stereo not drawn) [Compound 23, trans-Hinokiresinol], the Nitrite in data set [1] (25 μM compound, mean ± S.E.M.) amounted to 14.93 ± 0.41 µM; in data set [1] (50 μM compound, mean ± S.E.M.), 5.18 ± 0.06 µM. Further, the “% Inhibition of NO Production” value in data set [1] (50 μM compound, mean ± S.E.M., 50 µM) was determined as 83.73 ± 0.22 %. For the same compound, the inhibition at 25 µM in data set [1] (Mus musculus, N9, 24 h, 25 μM compound, mean ± S.E.M., read-out: % Inhibition of NO Production) is greater than 50%. Moreover, in data set [1] (Mus musculus, N9, 24 h, 50 μM compound, mean ± S.E.M., read-out: % Inhibition of NO Production), the inhibition at 50 µM stood at 83%. For the same compound, the half-maximal inhibitory concentration (IC50) in data set [1] (Mus musculus, N9, pretreated 1 h, Griess reagent, read-out: IC50, inhibition of NO production) amounted to 39.1 µM. In addition, the iNOS protein expression entry with iNOS is listed as “significantly attenuated”. Besides, the “TNF-α mRNA expression” value in the data set on TNF-α [2] is reported as “significantly suppressed”. In the data set with IL-6 [3], the “IL-6 mRNA expression” value was “significantly suppressed”. In the data set with TNF-α [4], the “TNF-α production (protein)” value was “significantly suppressed”. The “IL-6 production (protein)” value in the data set with IL-6 [5] is on record as “significantly suppressed”. In the data set on Akt, the “phosphorylation of Akt / PI3K/Akt signaling activation” value is on record as “not affected”. The “NF-κB signaling / p65 subunit into nuclei” value in the data set on NF-κB was “significantly prevented”. Further, in the data set on neuronal injury, the “effect on neuronal injury” value is reported as “protective effect”. Moreover, the viability at 24 h, 25 µM in data set [6] (25 μM compound) stood at 108 ± 4.39%. Moreover, in [6] (50 μM compound), the viability at 24 h, 50 µM was determined as 98.3 ± 11.6%. Moreover, in the data set on N9 microglial cells, the “cytotoxicity against N9 microglial cells (in words)” value is reported as “non-cytotoxic”.

For the compound `C[C@@H](CC[C@@]1(O)O[C@H]2C[C@H]3[C@@H]4CC[C@@H]5C[C@@H](O[C@@H]6O[C@H](CO)[C@H](O)[C@H](O)[C@H]6O[C@@H]6O[C@H](CO)[C@@H](O)[C@H](O)[C@H]6O)CC[C@]5(C)[C@H]4CC[C@]3(C)[C@H]2[C@@H]1C)CO[C@@H]1O[C@H](CO)[C@@H](O)[C@H](O)[C@H]1O` [Timosaponin BII], in data set [7], the “effect on scopolamine-induced cognition deficits” value is “ameliorate scopolamine-induced cognition deficits”.
